The structures appear in SMILES notation.

The nature of data set [1]: Stability test experiment B: high temperature, high humidity and light tests. It is filed as physicochemical. The following applies: for Purity: HPLC. On the procedure:
(1) High temperature test: the test samples were taken into the flat weighing bottle, spread into a thin layer of ≤ 5 mm thick, and stored for 30 days at a humidity of 75% ± 5%, 40° C. ± 2° C. and/or 60° C. ± 2° C. On the 5th, 10th, and 30th days, samples were taken for detection according to the key stability inspection items: the color change of the sample was observed, the purity of the sample was determined by HPLC, and the crystal structure of the sample was determined by XRPD.
(2) High humidity test: the test samples were taken into the flat weighing bottle, spread into a thin layer of ≤ 5 mm thick, and stored for 30 days at 25° C., RH 90% ± 5% and/or RH 75% ± 5%. On the 5th, 10th, and 30th days, samples were taken for detection according to the key stability inspection items: the color change of the sample was observed, the purity of the sample was determined by HPLC, and the crystal structure of the sample was determined by XRPD.
(3) Light test: the test samples were taken into the flat weighing bottle, spread into a thin layer of ≤ 5 mm thick, and placed in a light box (with an ultraviolet lamp) with an open mouth. The test samples were stored under the condition of illuminance of 4500 ± 5001x and ultraviolet light ≥ 0.7w/m^2 for 30 days. Samples were taken on the 5th, 10th and 30th days. The color change of the sample was observed, the purity of the sample was determined by HPLC, and the crystal structure of the sample was determined by XRPD.

A further data set in a line: Hygroscopicity test. It is filed as physicochemical. To be noted: 25° C. ± 1° C., RH 80% ± 2%, 24 hours. How it is done: 1) A dry stoppered glass weighing bottle was placed in a suitable constant temperature desiccator (RH 80% ± 2%) at 25° C. + 1° C. the day before, and accurately weighed (m1).
2) An appropriate amount of the test sample was taken and spread in the above weighing bottle. The thickness of the test sample was generally about 1 mm, and it was precisely weighed (m2).
3) The weighing bottle was opened and placed together with the bottle cap under the above constant temperature and humidity conditions for 24 hours.
4) The weighing bottle was closed with the bottle cap, and accurately weighed (m3). Calculate: weight gain % = (m3-m2) / (m2-m1) × 100%.
5) Judgment of hygroscopicity results (Chinese Pharmacopoeia 2015 Edition Appendix 9103 Guidelines for the hygroscopicity test of drugs, experimental conditions: 25° C.±1° C., 80%±2% relative humidity): […]

Data set [2] is described as follows: Stability test experiment C: storage in PE bag and aluminum foil. It is filed as physicochemical. The following applies: for Purity: HPLC. How it is done: 1.0 g of the test samples were packaged in a single-layer PE bag and aluminum foil, and fasten with cable ties. 6 packs were prepared in total and put in a stable box (40° C. ± 2° C., RH 75% ± 5%, or 25° C. ± 2° C., RH 60% ± 10%). Test samples were taken at 0, 3, and 6 months for HPLC and XRPD detection, respectively.

Data set [3] is described as follows: Pharmacokinetics test in Beagle dogs, oral capsules. To be noted: male Beagle dogs, oral capsule, 5 mg/kg. Format: in vivo. On the procedure: The test samples were filled into capsules for oral administration.
Three 8-12 kg male Beagle dogs were taken orally administered capsules containing the test sample at a dose of 5 mg/kg, and blood was collected at time points of 0.25, 0.5, 1.0, 2.0, 4.0, 6.0, 8.0 and 24 h. Standard curve was plotted based on concentrations of the samples in a suitable range, the concentration of the test sample in the plasma sample was measured and quantified by AB SCIEX API4000 LC-MS / MS at MRM mode. Pharmacokinetic parameters were calculated according to drug concentration -time curve using a noncompartmental method by WinNonLin 6.3 software.

Data set [4] in a line: Stability test experiment A: suspended and stirred in water, XRPD. It is filed as physicochemical. To be noted: for Crystal form (XRPD) after stirring in water: suspended and stirred in water at room temperature for 24 h. On the procedure:
At room temperature, the test samples (50 mg) were added into EP tubes, water (1 mL) was added respectively. The mixture was suspended and stirred at room temperature for 24 h, then suction filtered, and dried for X-ray powder diffraction (XRPD) analysis and identification. Among them, the experimental results of phosphate crystal form A, phosphate crystal form B, phosphate crystal form C, phosphate crystal form G and phosphate crystal form H are shown in FIGS. 20-24.

The mark [5] stands for this setting: High humidity (25° C., RH 90% ± 5%), 5 days.
[6] abbreviates: High humidity (25° C., RH 90% ± 5%), 10 days.
Setting [7] is: High humidity (25° C., RH 90% ± 5%), 30 days.
The mark [8] stands for this setting: High temperature (60° C., RH 75%±5%), 5 days.
[9] abbreviates: High temperature (60° C., RH 75%±5%), 10 days.
Setting [10] is: High temperature (60° C., RH 75%±5%), 30 days.
The mark [11] stands for this setting: 25° C. ± 2° C., RH 60% ±10%, 3 months.
The mark [12] stands for this setting: 25° C. ± 2° C., RH 60% ±10%, 6 months.
The mark [13] stands for this setting: 40° C. ± 2° C., RH 75% ±5%, 3 months.
The mark [14] stands for this setting: 40° C. ± 2° C., RH 75% ±5%, 6 months.

With `Cc1nc(-c2cnc(N3CCN(CCCc4c[nH]c5ccc(C#N)cc45)CC3)nc2)sc1C(N)=O` [Example 2, 2-(2-(4-(3-(5-cyano-1H-indol-3-yl)propyl)piperazin-1-yl)pyrimidin-5-yl)-4-methylthiazol-5-carboxamide], the Outward result in data set [1] (0 day), in data set [1] (setting [5]), in data set [1] (setting [6]), in data set [1] (setting [7]), in data set [1] (setting [8]) and in data set [1] (setting [9]) was “Light yellow solid” throughout. Moreover, the Outward result is reported as “Light yellow solid” in data set [1] (setting [10]); “Yellow solid” in data set [1] (Light, 5 days); “Yellow solid” in data set [1] (Light, 10 days); “Yellow solid” in data set [1] (Light, 30 days); “Light yellow solid” in data set [2] (0 month); “Light yellow solid” in data set [2] (setting [11]). For the same molecule, the Outward entry in data set [2] (setting [12]), in data set [2] (setting [13]) and in data set [2] (setting [14]) was “Light yellow solid” throughout. Moreover, the Purity in data set [1] (0 day) came to 99.24%; in data set [1] (setting [5]), 99.27%; in data set [1] (setting [6]), 99.21%; in data set [1] (setting [7]) it was 99.22%; in data set [1] (setting [8]), 99.26%; in data set [1] (setting [9]), 99.23%. Further, the Purity in data set [1] (setting [10]) was determined as 99.24%; in data set [1] (Light, 5 days) it was 99.25%; in data set [1] (Light, 10 days), 99.21%; in data set [1] (Light, 30 days), 99.10%; in data set [2] (0 month), 99.62%; in data set [2] (setting [11]), 99.63%. The Purity turned out to be 99.64% in data set [2] (setting [12]), 99.63% in data set [2] (setting [13]) and 99.64% in data set [2] (setting [14]). The XRPD pattern result in data set [1] (high temperature (60° C., RH 75% ± 5%), high humidity (25° C., RH 90% ± 5%) or light, 30 days) is recorded as “basically unchanged”. For the same molecule, the “Conclusion (hygroscopicity feature)” value in the data set “Hygroscopicity test” is “Slightly hygroscopicity (Less than 2% but not less than 0.2%)”. Further, the The hygroscopicity gain in “Hygroscopicity test” was determined as 0.32%. Besides, the “Crystal structure (XRPD)” value in data set [2] (stored up to 6 months at 40° C./RH 75% or 25° C./RH 60% in PE bag and aluminum foil) is reported as “have not changed”. Also, the Cmax in data set [3] (dog, plasma) was 496 ng/mL. Besides, in data set [3] (dog, plasma), the time to peak (Tmax) was 1.67 h. Also, the AUClast in data set [3] is 5240 h^∗ng/ml. In addition, the “Crystal structure after stirring in water” value in data set [4] (stirred in water at room temperature or under heating conditions) is recorded as “does not change”. For the same molecule, the “Crystal form (XRPD) after stirring in water” value (from here on “Crystal form (XRPD)”) in data set [4] (listed as phosphate crystal form A) is “crystal form did not change”.
Turning to `Cc1nc(-c2cnc(N3CCN(CCCc4c[nH]c5ccc(C#N)cc45)CC3)nc2)sc1C(N)=O` [Example 3, 2-(2-(4-(3-(5-cyano-1H-indol-3-yl)propyl)piperazin-1-yl)pyrimidin-5-yl)-4-methylthiazol-5-carboxamide], the “Crystal form (XRPD)” value in data set [4] (listed as phosphate crystal form B) is reported as “crystal form changed”.
In the case of `Cc1nc(-c2cnc(N3CCN(CCCc4c[nH]c5ccc(C#N)cc45)CC3)nc2)sc1C(N)=O` [Example 4, 2-(2-(4-(3-(5-cyano-1H-indol-3-yl)propyl)piperazin-1-yl)pyrimidin-5-yl)-4-methylthiazol-5-carboxamide], the “Crystal form (XRPD)” value in data set [4] (listed as phosphate crystal form C) is on record as “crystal form changed”.
`Cc1nc(-c2cnc(N3CCN(CCCc4c[nH]c5ccc(C#N)cc45)CC3)nc2)sc1C(N)=O` [Example 5, 2-(2-(4-(3-(5-cyano-1H-indol-3-yl)propyl)piperazin-1-yl)pyrimidin-5-yl)-4-methylthiazol-5-carboxamide]: the “Crystal form (XRPD)” value in data set [4] (listed as phosphate crystal form G) was “crystal form changed”.
As to `Cc1nc(-c2cnc(N3CCN(CCCc4c[nH]c5ccc(C#N)cc45)CC3)nc2)sc1C(N)=O` [Example 6, 2-(2-(4-(3-(5-cyano-1H-indol-3-yl)propyl)piperazin-1-yl)pyrimidin-5-yl)-4-methylthiazol-5-carboxamide], the “Crystal form (XRPD)” value in data set [4] (listed as phosphate crystal form H) was “crystal form changed”.

These data come from US20230312551A1, “SALT OF 2-(SUBSTITUTED PYRIMIDINYL) THIAZOLE CARBOXAMIDE COMPOUND, AND COMPOSITION AND USE THEREOF” (SUNSHINE LAKE PHARMA CO., LTD., priority 2020, published 2023).
